Entries after “also recorded” stand apart in the source; their conditions may differ. Values belong to the compound of their own block, whether it stands above or below them. No end group written: not given here.
What was measured:
[1] = tested on: DU145 prostate cancer cells; experiment: Cell proliferation (MTT) assay, DU145 cells; assay type: cell-based; conditions: 48 hours incubation
Protocol: (§1) Single cell suspensions of viable trypsinised cells were seeded into 96-well tissue culture plates at a density of 2×10^3 cells per well in a volume of 100 μl of a suitable culture media with foetal calf serum (FCS) (e.g., Dulbecco's Modified Eagles Medium (DMEM), with 10% v/v FCS, glutamine, Hepes, and antibiotics). A set of triplicate wells was prepared for each concentration of the peptide dendrimer being tested. Additional sample wells containing untreated cells or media alone were set up in each treatment plate and processed in parallel as reference controls. A zero-time plate of untreated cells and media-alone wells was simultaneously prepared and an MTT assay carried out on this plate at the time of test peptide dendrimer addition to treatment plates. All plates were cultured for 24 hours before addition of the test dendrimer. […] After solubilisation of the salt crystals, a coloured product is produced the measurement of which allows quantitation of the proliferative activity of the cultured cells.
(§2) Appropriate concentrations of the test dendrimer were prepared by dilution of freshly prepared sterile 1 mM stock solutions into cell culture media to give a final well volume of 200 μl containing 10% v/v FCS. […] Plates were gently vortexed to complete solubilisation of crystalline material and absorbance was read at 540-550 nm using a microplate reader. […]

[2] = tested on: phospho-ERK in HT29 cells; experiment: Phospho-ERK ELISA (FACE ERK1/2 kit) in HT29 cells; assay type: cell-based, human
Protocol: (§3) HT29 cells were harvested using 0.5% trypsin EDTA (Invitrogen) and 5000 cells were resuspended into 200 μL, and added to each well of a clear NUNC tissue culture treated 96 well plate (NUNC). Cells were seeded in DMEM media (Invitrogen) supplemented with 10% v/v foetal calf serum (FCS, Invitrogen), 1% L-Glutamine (Invitrogen) and 2% 1M HEPES buffer solution (Invitrogen). Cells were then incubated overnight at 37° C. The following day, the growth medium was replaced with 100 μL of serum-free DMEM supplemented with 1% L-glutamine and 2% 1M HEPES buffer solution, and incubated for a further 24 hours at 37° C. Dendrimers were added to test wells in serum free medium to provide final concentrations of the dendrimers ranging from 0.1-20 μLA. The total volume of each well was 200 uL, and cells were incubated at 37° C. for times ranging from 5 minutes to 4 hours. In those studies in which cells were subjected to stimulation by serum, 22 μL FCS (10% v/v final concentration) was added to wells for the final ten minutes of the culture period at 37° C. Serum-free media (SFM) only (22 μL) was added to non-serum stimulated cells.
Phospho-ERK levels were determined using the FACE ERK1/2 ELISA kit according to the manufacturer's instructions (Active Motif, kit obtained from Australian Biosearch, WA, Australia). Briefly, media was replaced and cells fixed with 4% formaldehyde in PBS, and after a 1 hour with antibody blocking buffer (supplied), the primary phospho-ERK or total-ERK antibody was added and incubated overnight at 4° C. Antibody dilution buffer only was added to control test wells containing no primary antibody. The next day, HRP-conjugated secondary antibody was added for one hour before plates were developed and the absorbance measured at 450 nm using a Labsystems Multiskan EX microplate reader (Labsystems, Thermo Labsystems, UK).
The effectiveness of the peptide dendrimer IK248 described in Example 2 in inhibiting growth factor mediated activation of ERK in HT29 cancer cells (i.e., (FCS stimulated) compared to various agents comprising the polypeptide RSKAKNPLYR (SEQ ID No. 6) coupled to different peptide facilitator moieties for facilitating passage of the polypeptide across the plasma cell membrane into the cytosol of the cells was evaluated. Phospho-ERK levels in the cells following treatment with 5 μM IK248 (Dend 8) for 1 hour or polypeptide-facilitator moiety agents (each at 5 μM for the same duration) were measured essentially as described in Example 1.3. The facilitator moieties utilised were the signal peptide fragment AAVALLPAVLLALLA (SEQ ID No. 16), the TAT-G peptide GRKKRRQRRRPPQG (SEQ ID No. 17), a modified pentratin sequence Tr-Pen RRQKWKKG (SEQ ID No. 18), and the penetratin peptide RQIKIWFQNRRMKWKKCS—SC (SEQ ID No. 19) wherein S—S indicates a disulphide bridge between the adjacent cysteine residues.
The peptide RSKAKNPLYR (SEQ ID. No. 6) or peptide dendrimers of the type illustrated in FIG. 3 comprising lysine branching units presenting either 8 (IK248) or 10 (IK248B) monomer units of the peptide RSKAKNPLYR (SEQ ID No. 6) were utilised in this study. Phospho-ERK levels were evaluated by ELISA utilising an Active Motif FACE ERK1/2 ELISA kit (Australian Biosearch, WA, Australia) as described in Example 1.3.

[3] = tested on: MKN45 gastric carcinoma cells; experiment: Cell proliferation (MTT) assay, MKN45 cells; assay type: cell-based; conditions: 48 hours incubation
Protocol: as §1, §2

[4] = tested on: MCF-7 breast cancer cells; experiment: Cell proliferation (MTT) assay, MCF-7 cells; assay type: cell-based; conditions: 48 hours incubation
Protocol: as §1, §2

HT29 colon cancer cells [5] = experiment: Cell proliferation (MTT) assay, HT29 cells; assay type: cell-based, human; conditions: 24 hour incubation period
total ERK in HT29 cells = experiment: Total-ERK ELISA in HT29 cells; assay type: cell-based, human; conditions: HT29 cells treated with the dendrimer
Protocol: as §3, with “In those studies in which cells were subjected to stimulation by serum, 22 μL FCS (10% v/v final concentration) was added to wells for the final ten minutes of the culture period at 37° C. Serum-free media (SFM) only (22 μL) was added to non-serum stimulated cells.” left out
Phospho-ERK levels were determined using the FACE ERK1/2 ELISA kit according to the manufacturer's instructions (Active Motif, kit obtained from Australian Biosearch, WA, Australia). […] The next day, HRP-conjugated secondary antibody was added for one hour before plates were developed and the absorbance measured at 450 nm using a Labsystems Multiskan EX microplate reader (Labsystems, Thermo Labsystems, UK).

HT29 colon cancer cells [6] = experiment: Cell proliferation (MTT) assay, HT29 cells; assay type: cell-based, human; conditions: for inhibition of proliferation of HT29 cells (MTT): 48 hours culture with dendrimer
Protocol: Single cell suspensions of viable trypsinised cells were seeded into 96-well tissue culture plates at a density of 2×10^3 cells per well in a volume of 100 μl of a suitable culture media with foetal calf serum (FCS) (e.g., Dulbecco's Modified Eagles Medium (DMEM), with 10% v/v FCS, glutamine, Hepes, and antibiotics). A set of triplicate wells was prepared for each concentration of the peptide dendrimer being tested. Additional sample wells containing untreated cells or media alone were set up in each treatment plate and processed in parallel as reference controls. A zero-time plate of untreated cells and media-alone wells was simultaneously prepared and an MTT assay carried out on this plate at the time of test peptide dendrimer addition to treatment plates. All plates were cultured for 24 hours before addition of the test dendrimer. To prepare the MTT solution 100 mg of MTT (3-(4,5-dimethylthiazolyl-2)-2,5-diphenyltetrazolium bromide) (Cat #. M-128, Sigma, St Louis Mo.), is mixed with 20 ml of PBS at pH 7.4. The resulting solution is filter sterilized (0.2 μM syringe filter) and stored at 4° C. protected from light until use. MTT substrate is cleaved in growing cells to yield a water insoluble salt. After solubilisation of the salt crystals, a coloured product is produced the measurement of which allows quantitation of the proliferative activity of the cultured cells.
Appropriate concentrations of the test dendrimer were prepared by dilution of freshly prepared sterile 1 mM stock solutions into cell culture media to give a final well volume of 200 μl containing 10% v/v FCS. The zero-plate was processed by addition of MTT at this time. Cell culture was continued for a further 24 or 48 hours before addition of 20 μl of MTT in PBS (5 mg/ml, 0.2 um filter sterilised). The MTT cell proliferation assay measures cell proliferation rate and, in instances where cell viability is compromised, the assay indicates a comparative reduction in cell viability. After a 3 hour incubation in the presence of MTT (5% CO2 in air at 37° C.), plates were centifuged at 450 g for 5 minutes, supernatant removed by gentle suction and precipitated tetrazolium salt resuspended into 150 μl DMSO:glycine (0.1 M glycine, 0.1 M NaCl pH 10.5) (6:1 v/v) solution. Plates were gently vortexed to complete solubilisation of crystalline material and absorbance was read at 540-550 nm using a microplate reader. Sample data were processed to determine the comparative growth of treated samples relative to untreated controls.
HT29 cells were cultured for 48 hours in the presence of selected dendrimers and proliferation of the cells was assessed by MTT assay essentially as described in Example 1.2. The results were calculated as percentage proliferation of control cells (not treated with dendrimer).

Compound: CC(C)C[C@H](NC(=O)[C@@H]1CCCN1C(=O)[C@H](CC(N)=O)NC(=O)[C@H](CCCCN)NC(=O)[C@H](C)NC(=O)[C@H](CCCCN)NC(=O)[C@H](CO)NC(=O)[C@@H](N)CCCNC(=N)N)C(=O)N[C@@H](Cc1ccc(O)cc1)C(=O)N[C@@H](CCCNC(=N)N)C(=O)NCCCC[C@H](NC(=O)[C@H](CCCNC(=N)N)NC(=O)[C@H](Cc1ccc(O)cc1)NC(=O)[C@H](CC(C)C)NC(=O)[C@@H]1CCCN1C(=O)[C@H](CC(N)=O)NC(=O)[C@H](CCCCN)NC(=O)[C@H](C)NC(=O)[C@H](CCCCN)NC(=O)[C@H](CO)NC(=O)[C@@H](N)CCCNC(=N)N)C(=O)NCCCC[C@H](NC(=O)[C@H](CCCCNC(=O)[C@H](CCCNC(=N)N)NC(=O)[C@H](Cc1ccc(O)cc1)NC(=O)[C@H](CC(C)C)NC(=O)[C@@H]1CCCN1C(=O)[C@H](CC(N)=O)NC(=O)[C@H](CCCCN)NC(=O)[C@H](C)NC(=O)[C@H](CCCCN)NC(=O)[C@H](CO)NC(=O)[C@@H](N)CCCNC(=N)N)NC(=O)[C@H](CCCNC(=N)N)NC(=O)[C@H](Cc1ccc(O)cc1)NC(=O)[C@H](CC(C)C)NC(=O)[C@@H]1CCCN1C(=O)[C@H](CC(N)=O)NC(=O)[C@H](CCCCN)NC(=O)[C@H](C)NC(=O)[C@H](CCCCN)NC(=O)[C@H](CO)NC(=O)[C@@H](N)CCCNC(=N)N)C(=O)NCCCC[C@H](NC(=O)[C@H](CCCCNC(=O)[C@H](CCCCNC(=O)[C@H](CCCNC(=N)N)NC(=O)[C@H](Cc1ccc(O)cc1)NC(=O)[C@H](CC(C)C)NC(=O)[C@@H]1CCCN1C(=O)[C@H](CC(N)=O)NC(=O)[C@H](CCCCN)NC(=O)[C@H](C)NC(=O)[C@H](CCCCN)NC(=O)[C@H](CO)NC(=O)[C@@H](N)CCCNC(=N)N)NC(=O)[C@H](CCCNC(=N)N)NC(=O)[C@H](Cc1ccc(O)cc1)NC(=O)[C@H](CC(C)C)NC(=O)[C@@H]1CCCN1C(=O)[C@H](CC(N)=O)NC(=O)[C@H](CCCCN)NC(=O)[C@H](C)NC(=O)[C@H](CCCCN)NC(=O)[C@H](CO)NC(=O)[C@@H](N)CCCNC(=N)N)NC(=O)[C@H](CCCCNC(=O)[C@H](CCCNC(=N)N)NC(=O)[C@H](Cc1ccc(O)cc1)NC(=O)[C@H](CC(C)C)NC(=O)[C@@H]1CCCN1C(=O)[C@H](CC(N)=O)NC(=O)[C@H](CCCCN)NC(=O)[C@H](C)NC(=O)[C@H](CCCCN)NC(=O)[C@H](CO)NC(=O)[C@@H](N)CCCNC(=N)N)NC(=O)[C@H](CCCNC(=N)N)NC(=O)[C@H](Cc1ccc(O)cc1)NC(=O)[C@H](CC(C)C)NC(=O)[C@@H]1CCCN1C(=O)[C@H](CC(N)=O)NC(=O)[C@H](CCCCN)NC(=O)[C@H](C)NC(=O)[C@H](CCCCN)NC(=O)[C@H](CO)NC(=O)[C@@H](N)CCCNC(=N)N)C(=O)NCCC(N)=O [IK248]
- inhibition of growth/proliferation of DU145 prostate cancer cells [1]: inhibited growth/proliferation
- greater inhibition of activated phospho-ERK than the closest test agent (TAT-G RSKAKNPLYR) ([2]; 5 μM, 1 hour, FCS stimulated HT29 cells): at least 30%
- inhibition of activated phospho-ERK ([2]; 5 μM, 4 hours, FCS stimulated HT29 cells (data not shown)): approx. 95%
- phospho-ERK level in FCS stimulated cells ([2]; HI FCS stimulated, 20 μM, 1 hour incubation): lower than in non-FCS stimulated cells treated with the dendrimer, but remained higher than phospho-ERK basal levels in control cells not treated with the dendrimer
- basal phospho-ERK level relative to control cells ([2]; not FCS stimulated, 1 μM-10 μM, 4 hr incubation): incease relative to control cells
- basal phospho-ERK level compared to control cells, time course ([2]; not FCS stimulated, 5 μM, 5, 10 and 30 minutes, and 1 hour): markedly increased phospho-ERK levels at all time points evaluated
- inhibition of growth/proliferation of MKN45 gastric carcinoma cells [3]: inhibited growth/proliferation
- inhibition of growth/proliferation of MCF-7 breast cancer cells [4]: inhibited growth/proliferation
- inhibition of proliferation of HT29 colon cancer cells (MTT) (HT29 colon cancer cells [5]): inhibit proliferation of HT29 colon cancer cells; also recorded: substantially more effective at inhibiting cell growth/proliferation than the peptide dendrimer comprising 4 monomers of the polypeptide
- total ERK levels (total ERK in HT29 cells): remained essentially unaffected

Compound: Dend8 β3: peptide dendrimer presenting 8 monomer units of the β3 based peptide RARAKNPLYK (SEQ ID No. 7) (also: dendrimer of 8 peptide copies)
- inhibition of proliferation of HT29 cells (MTT) (HT29 colon cancer cells [6]): inhibited proliferation of the HT29 cancer cells

Compound: Dend8 β5: peptide dendrimer presenting 8 monomer units of the β5 based peptide RSRARNPLYR (SEQ ID No. 8) (also: dendrimer of 8 peptide copies)
- inhibition of proliferation of HT29 cells (MTT) (HT29 colon cancer cells [6]): inhibited proliferation of the HT29 cancer cells; also recorded: more effective

Compound: Dend 4: peptide dendrimer comprising 4 monomer units of the polypeptide RSKAKNPLYR (SEQ ID No. 6) (also: dendrimer of 4 peptide copies)
- inhibition of proliferation of HT29 colon cancer cells (MTT) (HT29 colon cancer cells [5]): inhibit proliferation of HT29 colon cancer cells

Compound: Dend 9 10(4): dendrimer presenting 9 monomer units of the peptide RSKAKNPLYR (SEQ ID No. 6) (also: dendrimer of 9 peptide copies)
- inhibition of proliferation of HT29 cells (MTT) (HT29 colon cancer cells [6]): Dend 12 was more effective than Dend 9

- IC50 (HT29 colon cancer cells [6]; 48 hours, MTT): 1 µM
Compound: dendrimer presenting 12 monomer units of the peptide RSKAKNPLYR (SEQ ID No. 6) (also: dendrimer of 12 peptide copies) [Dend 12 10(4)]
- inhibition of proliferation of HT29 cells (MTT) (HT29 colon cancer cells [6]): more effective than Dend 9
- dendrimer concentration required for total kill (HT29 colon cancer cells [6]; HT29 cells, 48 hours, MTT): 10 µM

From patent US20110105408A1, “THERAPEUTIC PEPTIDES” (INTER-K PTY LIMITED, priority 2008, published 2011)
